Assays:
Assay in all cases: relative viability (nuclei count vs DMSO), 5 days (fraction); higher = more cells survive
AZD8055 + Navitoclax = compound: COc1ccc(-c2ccc3c(N4CCOC[C@@H]4C)nc(N4CCOC[C@@H]4C)nc3n2)cc1CO [AZD8055] + CC1(C)CCC(c2ccc(Cl)cc2)=C(CN2CCN(c3ccc(C(=O)NS(=O)(=O)c4ccc(N[C@H](CCN5CCOCC5)CSc5ccccc5)c(S(=O)(=O)C(F)(F)F)c4)cc3)CC2)C1 [Navitoclax] (partner 0.5 µM)
How it was run: (§1)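 Relative viability divides the nuclei count in treated wells by that in vehicle wells. Lung cancer cell lines were seeded in 1536-well plates, dosed by pin tool the next day, and fixed and stained after 5 days in one step with final 0.05% Triton X-100, 1% formaldehyde and 1 ug/ml Hoechst. Dosing was a single drug or a fixed anchor-drug dose plus five library-drug doses (not always all listed) in √10 steps, and values are medians of duplicate plates imaged at 4×.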

AZD8055 + Tozasertib = compound: COc1ccc(-c2ccc3c(N4CCOC[C@@H]4C)nc(N4CCOC[C@@H]4C)nc3n2)cc1CO [AZD8055] + Cc1cc(Nc2cc(N3CCN(C)CC3)nc(Sc3ccc(NC(=O)C4CC4)cc3)n2)n[nH]1 [Tozasertib] (partner 0.1 µM)
How it was run: as §1

AZD8055 + Vorinostat = compound: COc1ccc(-c2ccc3c(N4CCOC[C@@H]4C)nc(N4CCOC[C@@H]4C)nc3n2)cc1CO [AZD8055] + O=C(CCCCCCC(=O)Nc1ccccc1)NO [Vorinostat] (partner 1 µM)
How it was run: as §1

AZD8055 + Crizotinib = compound: COc1ccc(-c2ccc3c(N4CCOC[C@@H]4C)nc(N4CCOC[C@@H]4C)nc3n2)cc1CO [AZD8055] + C[C@@H](Oc1cc(-c2cnn(C3CCNCC3)c2)cnc1N)c1c(Cl)ccc(F)c1Cl [Crizotinib] (partner 1 µM)
How it was run: as §1

Row | Cell Line | relative viability (AZD8055 + Navitoclax; first compound 0.01 µM) | relative viability (AZD8055 + Navitoclax; first compound 0.03162 µM) | relative viability (AZD8055 + Navitoclax; first compound 0.1 µM) | relative viability (AZD8055 + Navitoclax; first compound 0.3162 µM) | relative viability (AZD8055 + Navitoclax; first compound 1 µM) | relative viability (AZD8055 + Tozasertib; first compound 0.01 µM) | relative viability (AZD8055 + Tozasertib; first compound 0.03162 µM) | relative viability (AZD8055 + Tozasertib; first compound 0.1 µM) | relative viability (AZD8055 + Tozasertib; first compound 0.3162 µM) | relative viability (AZD8055 + Tozasertib; first compound 1 µM) | relative viability (AZD8055 + Vorinostat; first compound 0.01 µM) | relative viability (AZD8055 + Vorinostat; first compound 0.03162 µM) | relative viability (AZD8055 + Vorinostat; first compound 0.1 µM) | relative viability (AZD8055 + Vorinostat; first compound 0.3162 µM) | relative viability (AZD8055 + Vorinostat; first compound 1 µM) | relative viability (AZD8055 + Crizotinib; first compound 0.01 µM) | relative viability (AZD8055 + Crizotinib; first compound 0.03162 µM) | relative viability (AZD8055 + Crizotinib; first compound 0.1 µM) | relative viability (AZD8055 + Crizotinib; first compound 0.3162 µM) | relative viability (AZD8055 + Crizotinib; first compound 1 µM)
1 | NCI-H1734 | 1.04 | 0.742 | 0.472 | 0.316 | 0.173 | 0.234 | 0.26 | 0.23 | 0.194 | 0.196 | 0.822 | 0.571 | 0.506 | 0.303 | 0.246 | 0.734 | 0.587 | 0.472 | 0.256 | 0.282
2 | NCI-H2228 | 0.804 | 0.86 | 0.24 | 0.18 | 0.244 | 0.222 | 0.296 | 0.155 | 0.143 | 0.158 | 0.918 | 0.541 | 0.416 | 0.271 | 0.242 | 0.39 | 0.229 | 0.286 | 0.173 | 0.302
3 | COR-L23 | 1.01 | 0.732 | 0.468 | 0.229 | 0.172 | 0.278 | 0.295 | 0.228 | 0.15 | 0.154 | 0.505 | 0.395 | 0.326 | 0.169 | 0.177 | 0.585 | 0.738 | 0.55 | 0.271 | 0.169
4 | NCI-H1993 | 0.785 | 0.681 | 0.649 | 0.665 | 0.56 | 0.55 | 0.534 | 0.518 | 0.47 | 0.526 | 0.55 | 0.474 | 0.358 | 0.287 | 0.407 | 0.819 | 0.688 | 0.59 | 0.588 | 0.609
5 | NCI-H1437 | 1.23 | 1.09 | 0.921 | 0.344 | 0.213 | 0.437 | 0.458 | 0.496 | 0.373 | 0.238 | 0.914 | 0.786 | 0.708 | 0.512 | 0.311 | 0.946 | 0.963 | 0.899 | 0.337 | 0.19
6 | UMC-11 | 0.295 | 0.277 | 0.248 | 0.173 | 0.134 | 0.196 | 0.224 | 0.208 | 0.2 | 0.211 | 0.453 | 0.282 | 0.258 | 0.233 | 0.21 | 0.543 | 0.535 | 0.321 | 0.29 | 0.189
7 | 201T | 1.22 | 1.23 | 1.21 | 1.03 | 0.819 | 0.98 | 0.895 | 0.813 | 0.529 | 0.595 | 0.974 | 0.943 | 0.824 | 0.679 | 0.575 | 1.09 | 1.02 | 0.997 | 0.772 | 0.721
8 | ChaGo-K-1 | 1.09 | 1.08 | 1.3 | 0.655 | 0.44 | 0.214 | 0.213 | 0.213 | 0.168 | 0.175 | 0.769 | 0.673 | 0.741 | 0.631 | 0.541 | 1.28 | 1.21 | 1.07 | 1.18 | 0.887
9 | NCI-H1650 | 1.01 | 1.15 | 1.07 | 0.519 | 0.502 | 0.366 | 0.446 | 0.422 | 0.534 | 0.252 | 0.729 | 0.436 | 0.521 | 0.265 | 0.236 | 0.919 | 1.24 | 1.02 | 0.518 | 0.43
10 | LOU-NH91 | 0.708 | 0.642 | 0.587 | 0.466 | 0.437 | 0.735 | 0.716 | 0.693 | 0.672 | 0.506 | 0.872 | 0.95 | 0.63 | 0.596 | 0.57 | 0.71 | 0.713 | 0.673 | 0.592 | 0.531
11 | HOP-62 | 1.09 | 1.11 | 1.17 | 0.75 | 0.594 | 0.414 | 0.46 | 0.401 | 0.292 | 0.273 | 0.636 | 0.413 | 0.587 | 0.298 | 0.183 | 0.837 | 0.853 | 0.71 | 0.387 | 0.345
12 | NCI-H1915 | 0.853 | 0.769 | 0.81 | 0.757 | 0.509 | 0.533 | 0.433 | 0.46 | 0.387 | 0.35 | 0.486 | 0.36 | 0.419 | 0.284 | 0.246 | 0.922 | 0.822 | 0.901 | 0.642 | 0.422
13 | NCI-H3122 | 1.13 | 1.05 | 0.687 | 0.435 | 0.348 | 0.465 | 0.375 | 0.315 | 0.178 | 0.132 | 0.809 | 0.999 | 0.877 | 0.442 | 0.338 | 0.248 | 0.238 | 0.183 | 0.174 | 0.171
14 | NCI-H1651 | 1.08 | 0.879 | 0.622 | 0.52 | 0.282 | 0.695 | 0.64 | 0.694 | 0.414 | 0.317 | 0.59 | 0.526 | 0.552 | 0.411 | 0.351 | 0.896 | 0.738 | 0.786 | 0.633 | 0.529
15 | NCI-H838 | 0.985 | 0.627 | 0.347 | 0.358 | 0.305 | 0.293 | 0.27 | 0.248 | 0.184 | 0.204 | 0.695 | 0.577 | 0.447 | 0.428 | 0.346 | 0.969 | 0.745 | 0.476 | 0.293 | 0.307
16 | NCI-H596 | 0.975 | 0.67 | 0.369 | 0.288 | 0.241 | 0.698 | 0.698 | 0.434 | 0.308 | 0.329 | 0.565 | 0.567 | 0.441 | 0.455 | 0.428 | 1 | 0.78 | 0.624 | 0.322 | 0.423
